Counter-ions that a name gives are not always drawn. Like-named read-outs stand apart in the source and are kept apart here.
Molecular target: T1, human cannabinoid CB2 receptor (Homo sapiens, UniProt P34972)
T1 construct: expressed in transfected cells; host or cells: Saccharomyces cerevisiae strain MMY23 (cassette integrated at the ura3 locus, GPD promoter)
Assay: Cannabinoid CB2 receptor agonist activity in yeast cells (FDGlu fluorescence)
Assay type: cell-based
Conditions: for Emax: read-out: efficacy value (Emax) at the cloned human cannabinoid CB2 receptor
Experimental: The cannabinoid CB2 receptor agonist activity of the compounds of formula (I) was determined in accordance with the following experimental method.
Yeast (Saccharomyces cerevisiae) cells expressing the human cannabinoid CB2 receptor were generated by integration of an expression cassette into the ura3 chromosomal locus of yeast strain MMY23. This cassette consisted of DNA sequence encoding the human CB2 receptor flanked by the yeast GPD promoter to the 5′ end of CB2 and a yeast transcriptional terminator sequence to the 3′ end of CB2. MMY23 expresses a yeast/mammalian chimeric G-protein alpha subunit in which the C-terminal 5 amino acids of Gpal are replaced with the C-terminal 5 amino acids of human Gαi3 (as described in Brown et al. (2000), Yeast 16:11-22).
Agonists were prepared as 10 mM stocks in DMSO. […] Agonist solutions in DMSO (1% final assay volume) were transferred into black, clear bottom, microtitre plates from NUNC (96- or 384-well). Cells were suspended at a density of 0.2 OD600/ml in SC media lacking histidine, uracil, tryptophan, adenine and leucine and supplemented with 10 mM 3-aminotriazole, 0.1M sodium phosphate pH 7.0, and […] fluorescein di-β-D-glucopyranoside (FDGlu). […] After incubation at 30° C. for 24 hours, fluorescence resulting from degradation of FDGlu to fluorescein due to exoglucanase, an endogenous yeast enzyme produced during agonist-stimulated cell growth, was determined using a Spectrofluor microtitre plate reader (Tecan; excitation wavelength: 485 nm; emission wavelength: 535 nm). Fluorescence was plotted against compound concentration and iteratively curve fitted using a four parameter fit to generate a concentration effect value. Efficacy (Emax) was calculated from the equation
Equieffective molar ratio (EMR) values were calculated from the equation

[1] = Emax relative to HU210, yeast expressing human CB2
[2] = yeast (Saccharomyces cerevisiae) expressing human CB2, agonist, 30° C. for 24 hours, read-out: EC50 at the cloned human cannabinoid CB2 receptor

T1 sequence (P34972 whole entry): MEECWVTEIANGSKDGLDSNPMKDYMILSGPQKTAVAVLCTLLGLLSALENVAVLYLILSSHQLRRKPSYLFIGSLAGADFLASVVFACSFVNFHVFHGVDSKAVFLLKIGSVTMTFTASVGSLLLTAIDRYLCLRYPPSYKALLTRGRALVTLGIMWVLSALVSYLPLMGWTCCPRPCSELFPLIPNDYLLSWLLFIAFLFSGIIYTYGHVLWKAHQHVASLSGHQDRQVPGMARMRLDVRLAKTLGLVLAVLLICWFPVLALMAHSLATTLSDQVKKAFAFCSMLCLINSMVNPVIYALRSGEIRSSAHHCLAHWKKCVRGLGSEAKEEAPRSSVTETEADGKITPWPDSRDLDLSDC

Row | SMILES | Emax [1] | EC50 [2] | EC50 | Emax
1 | CC(C)c1cc(N(C)c2cccc(Br)c2)ncc1CNCC1CCOCC1 [Example 49, (3-Bromo-phenyl)-(4-isopropyl-5-{[(tetrahydro-pyran-4-ylmethyl)-amino]-methyl}-pyridin-2-yl)-methyl-amine, compound withformic acid (1:1)] | > 50% | < 0.3 µM | – | –
2 | CC(C)c1cc(Nc2cccc(Cl)c2)ncc1CNCC1CCCC1 [Example 50, (3-Chloro-phenyl)-{5-[(cyclopentylmethyl-amino)-methyl]-4-isopropyl-pyridin-2-yl}-amine, compound with formic acid(1:1)] | – | – | < 0.3 µM | > 50%
3 | CC(C)CNCc1cnc(Nc2cccc(C(F)(F)F)c2)cc1C(C)C [Example 51, [5-(Isobutylamino-methyl)-4-isopropyl-pyridin-2-yl]-(3-trifluoromethyl-phenyl)-amine,compound with formic acid (1:1,25)] | > 50% | < 0.3 µM | – | –
4 | Fc1ccc(CNCc2cnc(Nc3cccc(Cl)c3)cc2C2CC2)cc1 [Example 52, (3-Chloro-phenyl)-{4-cyclopropyl-5-[(4-fluorobenzylamino)methyl]-pyridin-2-yl}-amine dihydrochloride] | – | – | < 0.3 µM | > 50%
5 | Fc1ccc(CNCc2cnc(Nc3ccc(Cl)cc3Cl)cc2C(F)(F)F)cc1 [Example 54, (2,4-Dichlorophenyl)-{5-[(4-fluoro-benzylamino)-methyl]-4-trifluoromethyl-pyridin-2-yl}-amine] | – | 0.3 to 1 µM | – | –
6 | CCCNCc1cnc(Nc2cccc(Cl)c2)cc1C1CC1 [Example 55, (3-Chloro-phenyl)-(4-cyclopropyl-5-propylaminomethyl-pyridin-2-yl) amine dihydrochloride] | – | – | < 0.3 µM | > 50%
7 | CC(C)c1cc(Nc2cccc(C(F)(F)F)c2F)ncc1C(C)NCC1CCC1 (stereo not shown) [Example 56, {[1-Cyclobutylmethyl-amino)ethyl]-4-isopropyl-pyridin-2-yl}-(2-fluoro-3-trifluoromethyl-phenyl)-amine dihydrochloride] | – | – | < 0.3 µM | > 50%
8 | CC(C)c1cc(Nc2cccc(Cl)c2)ncc1CN1CCC(F)(F)CC1 [Example 57, (3-Chloro-phenyl)-[5-(4,4-difluoro-piperidin-1-ylmethyl)-4-isopropylpyridin-2-yl]-amine dihydrochloride] | – | – | < 0.3 µM | > 50%
9 | CC(C)c1cc(Nc2cccc(Cl)c2)ncc1CN1CCCC1 [Example 58, (3-Chloro-phenyl)-(4-isopropyl-5-pyrrolidin-1-ylmethyl-pyridin-2-yl)-amine. dihydrochloride] | – | – | < 0.3 µM | > 50%
10 | CC(C)c1cc(Nc2cccc(Cl)c2)ncc1CN1CCC1 [Example 59, (5-Azetidin-1-ylmethyl-4-isopropyl-pyridin-2-yl)-(3-chloro-phenyl)-amine.dihydrochloride] | – | < 0.3 µM | – | –
11 | CC(C)c1cc(Nc2cccc(Cl)c2)ncc1CN1CCSCC1 [Example 60, (3-Chloro-phenyl)-(4-isopropyl-5-thiomorpholin-4-ylmethyl-pyridin-2-yl)-amine. dihydrochloride] | – | – | < 0.3 µM | > 50%
12 | CC(C)c1cc(Nc2ccc(Cl)cc2Cl)ncc1CN1CCSCC1 [Example 61, (2,4-Dichloro-phenyl)-(4-isopropyl-5thiomorpholin-4-ylmethyl-pyridin-2-yl)-amine dihydrochloride] | – | – | < 0.3 µM | > 50%
13 | Clc1cccc(Nc2cc(C3CC3)c(CNCC3CCCC3)cn2)c1 [Example 62, (3-Chloro-phenyl)-{5-[(cyclopentylmethyl-amino)-methyl]-4-cyclopropyl-pyridin-2-yl}-amine di-Hydrochloride] | – | – | < 0.3 µM | > 50%
14 | O=S1(=O)CCC(NCc2cnc(Nc3cccc(Cl)c3)cc2C2CC2)CC1 [Example 63, (3-Chloro-phenyl)-{4-cyclopropyl-5-[(1,1-dioxo-hexahydro-1l^6-thiopyran-4-ylamino)-methyl]-pyridin-2-yl}-amine di-hydrochloride] | – | – | < 0.3 µM | > 50%
15 | CC(C)c1cc(Nc2cccc(Cl)c2)ncc1CNC(C)(C)C [Example 65, [5-(tert-Butylamino-methyl)isopropyl-pyridin-2-yl]-(3-chloro-phenyl)amine dihydrochloride] | – | – | 0.3 to 1 µM | > 50%

Source: patent US20080280868A1, “Pyridine Derivatives and Their Use as Cb2 Receptor Modulators” (priority 2004, published 2008)
